How the values were obtained:
Format in all cases: cell-based, human
NCI-H226 = assay: NCI 60 panel growth inhibition (SRB), non-small cell lung cancer; details: NCI-H226, 10 μM
Experimental: (§1) Screening of cytotoxic activity against a panel of sixty human tumor cell lines The selected compounds by NCI were evaluated for their anticancer activity in a two- stage process. […] Then, the output from the single dose screen is reported as a mean graph. […] Assay protocol. […] For a typical screening experiment, cells are inoculated into 96 well microtiter plates in 100 µL at plating densities ranging from 5000 to 40,000 cells/well depending on the doubling time of individual cell lines. […] After 24 h, two plates of each cell line are fixed in situ with TCA, to represent a measurement of the cell population for each cell line at the time of drug addition (Tz). The experimental drugs are solubilized in dimethyl sulfoxide at 400-fold the desired final maximum test concentration and stored frozen prior to use. At the time of drug addition, an aliquot of frozen concentrate is thawed and diluted to twice the desired final maximum test concentration with complete medium containing 50 µg/mL gentamicin. Additional four, 10-fold or ½ log serial dilutions are made to provide a total of five drug concentrations plus control. […] For adherent cells, the assay is terminated by the addition of cold TCA. […] The supernatant is discarded, and the plates are washed five times with tap water and air dried. […] Using the seven absorbance measurements [time zero, (Tz), control growth, (C), and test growth in the presence of drug at the five concentration levels (Ti)], the percentage growth is calculated at each of the drug concentrations levels. Percentage growth inhibition is calculated as: [(Ti Tz)/(C–Tz)] x 100 for concentrations for which Ti>/=Tz and [(Ti-Tz)/Tz] x 100 for concentrations for which Ti < Tz. Three dose response parameters are calculated for each experimental agent. […] The drug concentration resulting in total growth inhibition (TGI) is calculated from Ti = Tz. […] Values are calculated for each of these three parameters if the level of activity is reached; however, if the effect is not reached or is exceeded, the value for that parameter is expressed as greater or less than the maximum or minimum concentration tested.

A549/ATCC = assay: as above; details: 10 μM
Experimental: as §1

NCI-H322M = assay: as above; details: 10 μM
Experimental: as §1

HOP-92 = assay: as above; details: HOP-92, 10 μM
Experimental: as §1

NCI-H460 = assay: as above; details: NCI-H460, 10 μM
Experimental: as §1

NCI-H23 = assay: as above; details: NCI-H23, 10 μM
Experimental: as §1

EKVX = assay: as above; details: 10 μM
Experimental: as §1

HOP-62 = assay: as above; details: HOP-62, 10 μM
Experimental: as §1

NCI-H522 = assay: as above; details: NCI-H522, 10 μM
Experimental: as §1

T-47D = assay: NCI 60 panel growth inhibition (SRB), breast cancer; details: 10 μM
Experimental: as §1

HS 578T = assay: as above; details: 10 μM
Experimental: as §1

MDA-MB-231/ATCC = assay: as above; details: 10 μM
Experimental: as §1

MDA-MB-468 = assay: as above; details: MDA-MB-468, 10 μM
Experimental: as §1

BT-549 = assay: as above; details: BT-549, 10 μM
Experimental: as §1

MCF7 = assay: as above; details: MCF7, 10 μM
Experimental: as §1

KM12 = assay: NCI 60 panel growth inhibition (SRB), colon cancer; details: KM12, 10 μM
Experimental: as §1

HCT-15 = assay: NCI 60 panel growth inhibition (SRB), colon cancer; details: HCT-15, 10 μM
Experimental: as §1

COLO 205 = assay: NCI 60 panel growth inhibition (SRB), colon cancer; details: COLO 205, 10 μM
Experimental: as §1

HCT-116 = assay: NCI 60 panel growth inhibition (SRB), colon cancer; details: HCT-116, 10 μM
Experimental: as §1

HCC-2998 = assay: NCI 60 panel growth inhibition (SRB), colon cancer; details: HCC-2998, 10 μM
Experimental: as §1

SW-620 = assay: NCI 60 panel growth inhibition (SRB), colon cancer; details: SW-620, 10 μM
Experimental: as §1

SN12C = assay: NCI 60 panel growth inhibition (SRB), renal cancer; details: 10 μM
Experimental: as §1

ACHN = assay: NCI 60 panel growth inhibition (SRB), renal cancer; details: 10 μM
Experimental: as §1

A498 = assay: NCI 60 panel growth inhibition (SRB), renal cancer; details: A498, 10 μM
Experimental: as §1

CAKI-1 = assay: NCI 60 panel growth inhibition (SRB), renal cancer; details: CAKI-1, 10 μM
Experimental: as §1

DU-145 = assay: NCI 60 panel growth inhibition (SRB), prostate cancer; details: DU-145, 10 μM
Experimental: as §1

PC-3 = assay: as above; details: PC-3, 10 μM
Experimental: as §1

LOX IMVI = assay: NCI 60 panel growth inhibition (SRB), melanoma; details: 10 μM
Experimental: as §1

MDA-MB-435 = assay: NCI 60 panel growth inhibition (SRB), melanoma; details: MDA-MB-435, 10 μM
Experimental: as §1

M14 = assay: NCI 60 panel growth inhibition (SRB), melanoma; details: M14, 10 μM
Experimental: as §1

SK-MEL-5 = assay: NCI 60 panel growth inhibition (SRB), melanoma; details: SK-MEL-5, 10 μM
Experimental: as §1

MALME-3M = assay: NCI 60 panel growth inhibition (SRB), melanoma; details: 10 μM
Experimental: as §1

SK-MEL-28 = assay: NCI 60 panel growth inhibition (SRB), melanoma; details: SK-MEL-28, 10 μM
Experimental: as §1

UACC-62 = assay: NCI 60 panel growth inhibition (SRB), melanoma; details: UACC-62, 10 μM
Experimental: as §1

UACC-257 = assay: NCI 60 panel growth inhibition (SRB), melanoma; details: UACC-257, 10 μM
Experimental: as §1

## COc1cccc(-c2nc3ccccc3s2)c1OCC(=O)NN=C1C(=O)Nc2ccc([N+](=O)[O-])cc21 [Compound 9j, 2-(2-(Benzo[d]thiazol-2-yl)-6-methoxyphenoxy)-N′-(5-nitro-2-oxoindolin-3-ylidene)acetohydrazide]
NCI-H226
  GI%: 21.82%
A549/ATCC
  GI%: 5.97%
NCI-H322M
  GI%: 6.18%
HOP-92
  GI%: 30.70%
NCI-H460
  GI%: – (GI% < 5%)
NCI-H23
  GI%: 22.82%
EKVX
  GI%: 26.64%
HOP-62
  GI%: – (GI% < 5%)
NCI-H522
  GI%: – (GI% < 5%)
T-47D
  GI%: – (GI% < 5%)
HS 578T
  GI%: – (GI% < 5%)
MDA-MB-231/ATCC
  GI%: 8.73%
MDA-MB-468
  GI%: 6.21%
BT-549
  GI%: – (GI% < 5%)
MCF7
  GI%: 25.07%
KM12
  GI%: 5.79%
HCT-15
  GI%: 5.47%
COLO 205
  GI%: – (GI% < 5%)
HCT-116
  GI%: 7.08%
HCC-2998
  GI%: – (GI% < 5%)
SW-620
  GI%: – (GI% < 5%)
SN12C
  GI%: 11.67%
ACHN
  GI%: 11.44%
A498
  GI%: – (GI% < 5%)
CAKI-1
  GI%: 28.19%
DU-145
  GI%: 6.78%
PC-3
  GI%: 18.80%
LOX IMVI
  GI%: – (GI% < 5%)
MDA-MB-435
  GI%: 6.00%
M14
  GI%: 8.57%
SK-MEL-5
  GI%: 24.59%
MALME-3M
  GI%: 12.74%
SK-MEL-28
  GI%: – (GI% < 5%)
UACC-62
  GI%: 11.06%
UACC-257
  GI%: 5.08%

## COc1cccc(-c2nc3ccccc3s2)c1OCC(=O)NN=C1C(=O)Nc2ccc(Br)cc21 [Compound 9l, 2-(2-(Benzo[d]thiazol-2-yl)-6-methoxyphenoxy)-N′-(5-bromo-2-oxoindolin-3-ylidene)acetohydrazide]
NCI-H226
  GI%: 12.06%
A549/ATCC
  GI%: 17.13%
NCI-H322M
  GI%: – (GI% < 5%)
NCI-H460
  GI%: 5.26%
NCI-H23
  GI%: 17.03%
EKVX
  GI%: 66.66%
HOP-62
  GI%: 13.44%
NCI-H522
  GI%: 25.73%
T-47D
  GI%: 41.03%
HS 578T
  GI%: – (GI% < 5%)
MDA-MB-231/ATCC
  GI%: 27.34%
MDA-MB-468
  GI%: 19.79%
BT-549
  GI%: – (GI% < 5%)
MCF7
  GI%: 35.92%
KM12
  GI%: 12.55%
HCT-15
  GI%: 21.00%
COLO 205
  GI%: – (GI% < 5%)
HCT-116
  GI%: 7.62%
HCC-2998
  GI%: – (GI% < 5%)
SW-620
  GI%: – (GI% < 5%)
SN12C
  GI%: 16.14%
ACHN
  GI%: 22.74%
A498
  GI%: – (GI% < 5%)
CAKI-1
  GI%: 40.19%
DU-145
  GI%: – (GI% < 5%)
LOX IMVI
  GI%: 19.74%
MDA-MB-435
  GI%: 5.27%
M14
  GI%: – (GI% < 5%)
SK-MEL-5
  GI%: 19.70%
MALME-3M
  GI%: 6.30%
SK-MEL-28
  GI%: – (GI% < 5%)
UACC-62
  GI%: 35.62%
UACC-257
  GI%: – (GI% < 5%)

## O=C(COc1ccccc1-c1nc2ccccc2s1)NN=C1C(=O)Nc2ccc(Cl)cc21 [Compound 9e, 2-(2-(Benzo[d]thiazol-2-yl)phenoxy)-N′-(5-chloro-2-oxoindolin-3-ylidene)acetohydrazide]
NCI-H226
  GI%: 11.52%
A549/ATCC
  GI%: – (GI% < 5%)
NCI-H322M
  GI%: – (GI% < 5%)
NCI-H460
  GI%: – (GI% < 5%)
NCI-H23
  GI%: 7.05%
EKVX
  GI%: 53.99%
HOP-62
  GI%: – (GI% < 5%)
NCI-H522
  GI%: 11.15%
T-47D
  GI%: – (GI% < 5%)
HS 578T
  GI%: – (GI% < 5%)
MDA-MB-231/ATCC
  GI%: 15.59%
MDA-MB-468
  GI%: 5.76%
BT-549
  GI%: – (GI% < 5%)
MCF7
  GI%: 15.86%
KM12
  GI%: – (GI% < 5%)
HCT-15
  GI%: – (GI% < 5%)
COLO 205
  GI%: – (GI% < 5%)
HCT-116
  GI%: – (GI% < 5%)
HCC-2998
  GI%: – (GI% < 5%)
SW-620
  GI%: – (GI% < 5%)
SN12C
  GI%: 8.28%
ACHN
  GI%: 18.45%
A498
  GI%: – (GI% < 5%)
CAKI-1
  GI%: 6.21%
DU-145
  GI%: – (GI% < 5%)
LOX IMVI
  GI%: 8.86%
MDA-MB-435
  GI%: – (GI% < 5%)
M14
  GI%: – (GI% < 5%)
SK-MEL-5
  GI%: 5.89%
MALME-3M
  GI%: – (GI% < 5%)
SK-MEL-28
  GI%: – (GI% < 5%)
UACC-62
  GI%: 10.86%
UACC-257
  GI%: – (GI% < 5%)

## CNC(=O)c1nn(C)c2c1C(C)(C)Cc1cnc(Nc3ccc(N4CCN(C)CC4)cc3)nc1-2 [Milciclib, reference compound]
NCI-H226
  GI%: 87.70%
A549/ATCC
  GI%: 108%
NCI-H322M
  GI%: 84.90%
HOP-92
  GI%: 96.20%
NCI-H460
  GI%: 92.50%
NCI-H23
  GI%: 97.60%
EKVX
  GI%: 94.3%
HOP-62
  GI%: 109.50%
NCI-H522
  GI%: 129.40%
T-47D
  GI%: 105.70%
MDA-MB-231/ATCC
  GI%: 85.30%
MDA-MB-468
  GI%: 113.40%
BT-549
  GI%: 94.80%
MCF7
  GI%: 89.60%
KM12
  GI%: 99.4%
HCT-15
  GI%: 96.9%
COLO 205
  GI%: 180.1%
HCT-116
  GI%: 99.8%
HCC-2998
  GI%: 89.6%
SW-620
  GI%: 88.5%
SN12C
  GI%: 88.70%
ACHN
  GI%: 90.4%
A498
  GI%: 161.60%
CAKI-1
  GI%: 92.30%
DU-145
  GI%: 84.50%
PC-3
  GI%: 92.10%
LOX IMVI
  GI%: 94.70%
MDA-MB-435
  GI%: 78.9%
M14
  GI%: 87.5%
SK-MEL-5
  GI%: 92.70%
MALME-3M
  GI%: 108.70%
SK-MEL-28
  GI%: 83.80%
UACC-62
  GI%: 109.5%
UACC-257
  GI%: 114.80%

From paper PMC11396129, “Oxindole–benzothiazole hybrids as CDK2 inhibitors and anticancer agents: design, synthesis and biological evaluation” (BMC Chemistry, 2024)
